We go through 7 molecules from patent publication US11178869B2, “Microbiocidal quinoline (thio)carboxamide derivatives” (priority 2017, dated 2021).

The test system of data set [1] is Botryotinia fuckeliana (Botrytis cinerea). In words: Botryotinia fuckeliana (Botrytis cinerea) / liquid culture (gray mould). Format: cell-based. As to conditions: 72 h, 200 ppm, compared to untreated control, growth inhibition photometrically 3-4 days after application, read-out: disease control.
Data set [2] deals with Fusarium culmorum. In words: microbe, parasite or virus in culture. Format: cell-based. Particulars: read-out: disease control.
In data set [3] the test system is Monographella nivalis (Microdochium nivale). In words: Monographella nivalis (Microdochium nivale) / liquid culture (foot rot cereals). Format: cell-based. Particulars: 200 ppm, compared to untreated control, growth inhibition photometrically 4-5 days after application, read-out: disease control.
Data set [4] concerns Magnaporthe grisea (Pyricularia oryzae). In words: microbe, parasite or virus in culture. The data set is classed as cell-based. As to conditions: read-out: control of Magnaporthe grisea.
The test system of data set [5] is Pyrenophora teres. The data set can be described thus: Pyrenophora teres / barley / leaf disc preventative (net blotch). Format: in vivo, Pyrenophora teres on barley leaf segments cv. Hasso. Particulars: foliar, barley leaf segments, compared to untreated control, 5-7 days after application.
The subject of data set [6] is Glomerella lagenarium (Colletotrichum lagenarium). The data set can be described thus: Glomerella lagenarium (Colletotrichum lagenarium) / liquid culture (anthracnose). The data set is classed as cell-based. Particulars: Colletotrichum orbiculare; 200 ppm; compared to untreated control; growth inhibition photometrically 3-4 days after application; read-out: disease control.

Data set [7] deals with Fusarium culmorum. The data set can be described thus: whole plant or invertebrate. The data set is classed as in vivo, Fusarium culmorum on wheat spikelets cv. Monsun. Particulars: in Triticum aestivum, 144 h, read-out: control of Fusarium culmorum.
The subject of data set [8] is Sclerotinia sclerotiorum. In words: Sclerotinia sclerotiorum / liquid culture (cottony rot). As to conditions: read-out: control of Sclerotinia sclerotiorum.
Procedure: Sclerotinia sclerotiorum/Liquid Culture (Cottony Rot)
Mycelia fragments of a newly grown liquid culture of the fungus are directly mixed into nutrient broth (Vogels broth). After placing a (DMSO) solution of test compound into a microtiter plate (96-well format) the nutrient broth containing the fungal material is added. The test plates are incubated at 24° C. and the inhibition of growth is determined photometrically 3-4 days after application.
The subject of data set [9] is Gaeumannomyces graminis. In words: Gaeumannomyces graminis / liquid culture (take-all of cereals). Format: cell-based. Particulars: compared to untreated control, 4-5 days after application.

Consider `Cc1cccc2cc(C(=O)NC(C#Cc3ccccc3)C(C)C)cnc12` (stereo not shown) [Compound F-1, N-(1-isopropyl-3-phenyl-prop-2-ynyl)-8-methyl-quinoline-3-carboxamide], for which the inhibition of growth at 200 ppm in data set [1], in data set [2] and in data set [3] was at least 80% each time. Further, the inhibition of growth at 20 ppm in data set [4] is at least 80%. The molecule further displayed a pest or weed control at 200 ppm in [5] of at least 80%.

One may read the melting point as the temperature, or range, at which the solid turns liquid. In turn, `CC(C)C(C#Cc1ccccc1)NC(=O)c1cnc2c(Cl)cccc2c1` (stereo not shown) [Compound F-2, 8-chloro-N-(1-isopropyl-3-phenyl-prop-2-ynyl)quinoline-3-carboxamide] displayed a melting point of 168 to 170 °C. In [2], the inhibition of growth at 200 ppm was at least 80%. The inhibition of growth at 200 ppm in data set [3] was at least 80%. In data set [5], the pest or weed control at 200 ppm is at least 80%.

`CCC(C)(C#Cc1ccccc1)NC(=O)c1cnc2c(Cl)cccc2c1` (stereo not shown) [Compound F-11, 8-chloro-N-(1-ethyl-1-methyl-3-phenyl-prop-2-ynyl)quinoline-3-carboxamide] registered a melting point of 161 to 162 °C. Further, the inhibition of growth at 200 ppm in [1] was at least 80%. Moreover, the inhibition of growth at 200 ppm in data set [2] is at least 80%. Besides, the inhibition of growth at 200 ppm in [6] is at least 80%. Moreover, the inhibition of growth at 200 ppm in [3] was at least 80%. Also, the inhibition of growth at 20 ppm in data set [4] was at least 80%. The pest or weed control at 200 ppm in [7] was at least 80%. The molecule further showed a pest or weed control at 200 ppm in [5] of at least 80%. Moreover, the inhibition of growth at 20 ppm in data set [8] was at least 80%.

Take `CCC(C)(C#Cc1ccccc1)NC(=O)c1cnc2c(F)cccc2c1` (stereo not shown) [Compound F-17, N-(1-ethyl-1-methyl-3-phenyl-prop-2-ynyl)-8-fluoro-quinoline-3-carboxamide]: the melting point was 129 to 132 °C. Moreover, in data set [1], the inhibition of growth at 200 ppm is at least 80%. Also, the inhibition of growth at 200 ppm in data set [2] was at least 80%. Also, the inhibition of growth at 200 ppm in data set [6] was at least 80%. In addition, the inhibition of growth at 200 ppm in [3] was at least 80%. The inhibition of growth at 20 ppm in [4] was at least 80%. Besides, the pest or weed control at 200 ppm in data set [7] was at least 80%. Further, in data set [5], the pest or weed control at 200 ppm was at least 80%.

Take `COc1cccc(C#CC(C)(C)NC(=O)c2cnc3c(F)cccc3c2)c1` [Compound F-29, 8-fluoro-N-[3-(3-methoxyphenyl)-1,1-dimethyl-prop-2-ynyl]quinoline-3-carboxamide]: the inhibition of growth at 200 ppm in data set [1], in [2], in data set [6] and in data set [3] was at least 80% each time. Further, the pest or weed control at 200 ppm in [7] and in data set [5] was at least 80% throughout.

Molecule `CC(C)(C#Cc1ccccc1)NC(=O)c1cnc2c(F)cccc2c1` [Compound F-55, N-(1,1-dimethyl-3-phenyl-prop-2-ynyl)-8-fluoro-quinoline-3-carboxamide] returned a melting point of 151 to 155 °C. Further, the inhibition of growth at 200 ppm in data set [1] was at least 80%. For the same molecule, in [2], the inhibition of growth at 200 ppm is at least 80%. Besides, the inhibition of growth at 200 ppm in data set [6] was at least 80%. For the same molecule, in data set [3], the inhibition of growth at 200 ppm was at least 80%. Further, the pest or weed control at 200 ppm in [5] is at least 80%. This molecule came in with an inhibition of growth at 20 ppm in data set [9] of at least 80%.

Consider `CC(C)C[C@@H](C#Cc1ccccc1)NC(=O)c1cnc2c(F)cccc2c1` [Compound G-4, 8-fluoro-N-[(1S)-3-methyl-1-(2-phenylethynyl)butyl]quinoline-3-carboxamide], for which the inhibition of growth at 200 ppm in [1], in data set [2] and in [6] was at least 80% each time. Moreover, the inhibition of growth at 20 ppm in data set [4] and in [9] was at least 80% in each case. For the same molecule, the pest or weed control at 200 ppm in data set [7] and in data set [5] was at least 80% throughout.
